# Marks after values point to notes of the source that are not given here.
# Experiments:
# [1] = test system: maize Oh43 haploid seedlings; experiment: nitrous oxide gas treatment at 3–8 leaf stages, Oh43 haploids (Example 3); settings: for Ear (open pollinated): No. of fertile sectors /ear / Ear (open pollinated): No. of kernels produced /ear / Ear (open pollinated): Plants with fertile sectors % / No. of tassel branch Average / Plant height (cm) Average / Tassel: No. of fertile anthers extruded/tassel / Tassel: No. of fertile sectors/tassel / Tassel: Plants with fertile sectors % / Ear (open pollinated): Plants with fertile sectors No. / Tassel: Plants with fertile sectors No. / No. of plants Survived: 600 kPa, 2 days
# Excerpt: Leaf stages were defined as follows, At the 3 leaf stage, there are three elongated leaves and the tip of the fourth leaf appears at the center of the leaf whorl. This stage is defined as V2 according to Ritchie et al. (1997). At the 8 leaf stage, there are 8 elongated leaves and the tip of the 9th and 10th leaves appear at the center of the leaf whorl (late V5 stage). At the 6 leaf stage, six elongated leaves are observable, and the tip of seventh leaf appears at the leaf whorl (late V4 or early V5 stage). Nine to sixteen haploid plants were treated at each stage using a large air tight iron chamber (FIG. 3). […] Moistened calcium hydroxide (50 g) wrapped in a paper towel was included to absorb carbon dioxide that is produced by the seedlings, as carbon dioxide at high concentration will injure the seedlings during the treatment. The soil of the pots was dried prior to treatment to prevent root injuries. […] The gas was introduced slowly into the chamber over a 10 minutes time frame.
# After the treatment, seedlings were transplanted into larger pots, and grown in a greenhouse. A relatively cool temperature (below 25° C.) was maintained to permit the appropriate development of doubled sectors. At flowering, the ears were cross pollinated by an appropriate pollen source to reveal all the fertile sectors on the ears. On the treated plants, plant height (cm), tassel size (cm), number of tassel branches, ear length (cm), the number of fertile sectors on a tassel and an ear, the number of anthers on a tassel, and the number of kernels on an ear were recorded.
# Analyses of variance and Duncan's Multiple Range Tests were performed to determine the effects of treatments on the plant height (cm), tassel size (cm), and ear length (cm). Chi square tests were used to determine the effects of treatments upon the proportion of plants that developed fertile tassel and ear sectors. The ratios of untreated plants with fertile sectors were used to estimate the significance of the ratio of treated plants with fertile sectors.
# Nonparametric tests were performed to compare the distributions. The primary test was the Kruskal-Wallis test. In the initial tests, the null hypothesis considered was that the distributions would be the same for each treatment and control. If the null hypothesis was rejected (P<0.05), then pair wise comparisons of each treatment to the control using Dunn's method were conducted. The tassel branch number was low incidence count data and was analyzed using the same nonparametric tests mentioned above.
# [2] = test system: maize haploid seedlings of origin A619 × B73; experiment: doubled haploid production trial, A619 × B73 haploids (Example 4); settings: 600 kPa, 2 days; for Ear: No. of kernels produced/ear: selfed
# Protocol: Ten to nineteen plants were treated for each plot. Self pollinations were conducted on these treated haploids if there were fertile sectors on the tassel. Pollen grains were collected carefully on a sheet of paper and transferred to the silks repeatedly. Silks and husks were cut back prior to pollination in order to permit maximum seed set. The numbers of fertile tassel and ear sectors, as well as the numbers of anthers and selfed kernels were recorded. Statistical analyses were as described above.
structure (smiles),measurement,setting,value
"[N-]=[N+]=O [nitrous oxide gas, nitrous oxide]",Ear (open pollinated): No. of fertile sectors /ear,[1]; 3 leaf stage,0.7 /ear
same,Ear (open pollinated): No. of kernels produced /ear,[1]; 3 leaf stage,0.5 /ear
same,Ear (open pollinated): Plants with fertile sectors %,[1]; 3 leaf stage,33%
same,No. of tassel branch Average,[1]; 3 leaf stage,3.8**
same,Plant height (cm) Average,[1]; 3 leaf stage,106 a cm
same,Tassel: No. of fertile anthers extruded/tassel,[1]; 3 leaf stage,0.0 /tassel
same,Tassel: No. of fertile sectors/tassel,[1]; 3 leaf stage,0.0 /tassel
same,Tassel: Plants with fertile sectors %,[1]; 3 leaf stage,0%
same,Ear (open pollinated): Plants with fertile sectors No.,"[1]; 3 leaf stage, 12 examined",4
same,Tassel: Plants with fertile sectors No.,"[1]; 3 leaf stage, 12 examined",0
same,No. of plants Survived,"[1]; 3 leaf stage, 12 treated",12
same,effect for increasing the fertile sectors on either tassels and ears,[1]; 3–4 leaf stage,no effect
same,"number of anthers /tassel, span over treatments",[1]; 3–8 leaf stage treatments,0–19.7 /tassel
same,"number of kernels on the ears, span over treatments",[1]; 3–8 leaf stage treatments,0.5–18.6
same,Ear (open pollinated): No. of fertile sectors /ear,[1]; 4 leaf stage,0.8 /ear
same,Ear (open pollinated): No. of kernels produced /ear,[1]; 4 leaf stage,0.8 /ear
same,Ear (open pollinated): Plants with fertile sectors %,[1]; 4 leaf stage,46%
same,No. of tassel branch Average,[1]; 4 leaf stage,4.4**
same,Plant height (cm) Average,[1]; 4 leaf stage,121 b cm
same,Tassel: No. of fertile anthers extruded/tassel,[1]; 4 leaf stage,1.5 /tassel
same,Tassel: No. of fertile sectors/tassel,[1]; 4 leaf stage,0.3 /tassel
same,Tassel: Plants with fertile sectors %,[1]; 4 leaf stage,23%
same,Ear (open pollinated): Plants with fertile sectors No.,"[1]; 4 leaf stage, 13 examined",6
same,Tassel: Plants with fertile sectors No.,"[1]; 4 leaf stage, 13 examined",3
same,No. of plants Survived,"[1]; 4 leaf stage, 13 treated",13
same,Ear (open pollinated): No. of fertile sectors /ear,[1]; 5 leaf stage,1.4 /ear
same,Ear (open pollinated): No. of kernels produced /ear,[1]; 5 leaf stage,1.8 /ear
same,Ear (open pollinated): Plants with fertile sectors %,[1]; 5 leaf stage,46%
same,No. of tassel branch Average,[1]; 5 leaf stage,2.9**
same,Plant height (cm) Average,[1]; 5 leaf stage,124 b cm
same,Tassel: No. of fertile anthers extruded/tassel,[1]; 5 leaf stage,19.7 /tassel
same,Tassel: No. of fertile sectors/tassel,[1]; 5 leaf stage,1.2* /tassel
same,Tassel: Plants with fertile sectors %,[1]; 5 leaf stage,54** %
same,Ear (open pollinated): Plants with fertile sectors No.,"[1]; 5 leaf stage, 13 examined",6
same,Tassel: Plants with fertile sectors No.,"[1]; 5 leaf stage, 13 examined",7
same,Ear (open pollinated): No. of fertile sectors /ear,[1]; 6 leaf stage,1.5 /ear
same,Ear (open pollinated): No. of kernels produced /ear,[1]; 6 leaf stage,18.6 /ear
same,Ear (open pollinated): Plants with fertile sectors %,[1]; 6 leaf stage,67%
same,No. of tassel branch Average,[1]; 6 leaf stage,5.7
same,Plant height (cm) Average,[1]; 6 leaf stage,119 b cm
same,Tassel: No. of fertile anthers extruded/tassel,[1]; 6 leaf stage,5.3 /tassel
same,Tassel: No. of fertile sectors/tassel,[1]; 6 leaf stage,1.8** /tassel
same,Tassel: Plants with fertile sectors %,[1]; 6 leaf stage,100%
same,Ear (open pollinated): Plants with fertile sectors No.,"[1]; 6 leaf stage, 12 examined",8
same,Tassel: Plants with fertile sectors No.,"[1]; 6 leaf stage, 12 examined",12
same,No. of plants Survived,"[1]; 6 leaf stage, 16 treated",12
same,Ear (open pollinated): No. of fertile sectors /ear,[1]; 7 leaf stage,0.8 /ear
same,Ear (open pollinated): No. of kernels produced /ear,[1]; 7 leaf stage,1.1 /ear
same,Ear (open pollinated): Plants with fertile sectors %,[1]; 7 leaf stage,46%
same,No. of tassel branch Average,[1]; 7 leaf stage,5.0*
same,Plant height (cm) Average,[1]; 7 leaf stage,122 b cm
same,Tassel: No. of fertile anthers extruded/tassel,[1]; 7 leaf stage,5.8** /tassel
same,Tassel: No. of fertile sectors/tassel,[1]; 7 leaf stage,2.1** /tassel
same,Tassel: Plants with fertile sectors %,[1]; 7 leaf stage,69** %
same,Ear (open pollinated): Plants with fertile sectors No.,"[1]; 7 leaf stage, 13 examined",6
same,Tassel: Plants with fertile sectors No.,"[1]; 7 leaf stage, 13 examined",9
same,No. of plants Survived,"[1]; 7 leaf stage, 16 treated",13
same,Ear (open pollinated): No. of fertile sectors /ear,[1]; 8 leaf stage,1.0 /ear
same,Ear (open pollinated): No. of kernels produced /ear,[1]; 8 leaf stage,4.1 /ear
same,Ear (open pollinated): Plants with fertile sectors %,[1]; 8 leaf stage,46%
same,No. of tassel branch Average,[1]; 8 leaf stage,5.3*
same,Plant height (cm) Average,[1]; 8 leaf stage,122 b cm
same,Tassel: No. of fertile anthers extruded/tassel,[1]; 8 leaf stage,3.1** /tassel
same,Tassel: No. of fertile sectors/tassel,[1]; 8 leaf stage,1.4** /tassel
same,Tassel: Plants with fertile sectors %,[1]; 8 leaf stage,69** %
same,Ear (open pollinated): Plants with fertile sectors No.,"[1]; 8 leaf stage, 13 examined",6
same,Tassel: Plants with fertile sectors No.,"[1]; 8 leaf stage, 13 examined",9
same,No. of plants Survived,"[1]; 8 leaf stage, 16 treated",13
same,Ear: Plants with kernels after selfing %,[2]; 5 leaf stage,36 n.s. %
same,Tassel: No. of fertile anthers extruded/tassel,[2]; 5 leaf stage,20.8** /tassel
same,Tassel: Plants with fertile sectors %,[2]; 5 leaf stage,73** %
same,Ear: Plants with kernels after selfing No.,"[2]; 5 leaf stage, 11 survived",4
same,Tassel: Plants with fertile sectors No.,"[2]; 5 leaf stage, 11 survived",8
same,No. of plants Survived,"[2]; 5 leaf stage, 12 treated",11
same,Ear: No. of kernels produced/ear,[2]; 5 leaf stage,4.2 n.s. /ear
same,Ear: Plants with kernels after selfing %,[2]; 6 leaf stage,36%
same,Tassel: No. of fertile anthers extruded/tassel,[2]; 6 leaf stage,34.5** /tassel
same,Tassel: No. of fertile sectors/tassel,[2]; 6 leaf stage,1.7** /tassel
same,Tassel: Plants with fertile sectors %,[2]; 6 leaf stage,73** %
same,Ear: Plants with kernels after selfing No.,"[2]; 6 leaf stage, 11 survived",4
same,Tassel: Plants with fertile sectors No.,"[2]; 6 leaf stage, 11 survived",8
same,No. of plants Survived,"[2]; 6 leaf stage, 11 treated",11
same,Ear: No. of kernels produced/ear,[2]; 6 leaf stage,6.2 /ear
same,Ear: Plants with kernels after selfing %,[2]; 7 leaf stage,17%
same,Tassel: No. of fertile anthers extruded/tassel,[2]; 7 leaf stage,4.8* /tassel
same,Tassel: Plants with fertile sectors %,[2]; 7 leaf stage,75** %
same,Ear: Plants with kernels after selfing No.,"[2]; 7 leaf stage, 12 survived",2
same,Tassel: Plants with fertile sectors No.,"[2]; 7 leaf stage, 12 survived",9
same,No. of plants Survived,"[2]; 7 leaf stage, 12 treated",12
same,Ear: No. of kernels produced/ear,[2]; 7 leaf stage,3.5 /ear
